Source: patent publication US12522576B2, “Polymorphs of D9-THC naphthoylester” (priority 2019, dated 2026)
≈ marks a conversion by molar mass, not a printed value.

Legend:
Format in all cases: physicochemical
[1] = Visual solubility of Form B
Method: Solubility of D9-THC-naphthoylester, Form B (Batch 2) was determined by visual assessment in various solvents at RT and 50° C. Aliquots of solvent were added to 20 mg of solids at room temperature and 25 mg of solids at 50° C. until complete dissolution or until a maximum volume of 1 mL was added.

Gravimetric solubility = details: thermodynamic from solid
Method: Additional solids or solvents were added to visual solubility samples with vials less than 100 mg/mL to produce slurries at 20 and 50° C. for the subsequent equilibrium solubility assessment. The slurries were stirred at 20 and 50° C. overnight, filtered through 0.2 μm syringe filters and evaporated to dryness under reduced pressure at ambient temperature. Gravimetric solubility was calculated by dividing the dry solids residue mass (mg) by the solvent mass (g). The mg/g solubility values were then converted to mg/mL using solvent density.
The solubility of Group D acetone and DMF solvates were assessed in the corresponding solvents.

[2] = D9 solubility in the liquors at isolation temperature; details: organic solvent or mixture, thermodynamic from solid
Method: At the end of each experiment, suspensions were equilibrated at the isolation temperature (25 or 5° C.) for at least 18 hours and the solids and liquors separated by centrifugation at the isolation temperature. The Exo/D9/D8 ratio (Exo-D9-THC-naphthoylester impurity/D9-THC-naphthoylester/D8-THC-naphthoylester) was determined in both the isolated solids and the liquors, from which the % Exo-depletion in the isolated solids was calculated. Several solids were also isolated at elevated temperatures to assess the impact of the isolation temperature on Exo-impurity depletion.
In addition, the solubility of D9 in the liquors was determined in most of the explored solvents and used to estimate the yield.

Compound `CCCCCc1cc(OC(=O)c2ccc3ccccc3c2)c2c(c1)OC(C)(C)[C@@H]1CCC(C)=C[C@@H]21` [Form B, (6aR,10aR)-6a,7,8,10a-tetrahydro-6,6,9-trimethyl-3-pentyl-6H-dibenzo[b,d]pyran-1-yl ester] has a solubility ([1]; alcohols, organic solvent or mixture, thermodynamic from solid, read-out: Solubility) of under 10 mg/mL, a solubility ([1]; common organic solvents, organic solvent or mixture, thermodynamic from solid, read-out: Solubility) of over 100 mg/mL and a solubility ([1]; organic solvent or mixture, thermodynamic from solid, solvent 1,4-Dioxane, RT, read-out: Visual Solubility at RT) of over 404 mg/mL. It also gave a solubility ([1]; organic solvent or mixture, thermodynamic from solid, solvent 2Me-THF, RT, read-out: Visual Solubility at RT) of over 368 mg/mL, a solubility ([1]; organic solvent or mixture, thermodynamic from solid, solvent Acetone/MeOH (1:3), 50° C., read-out: Visual Solubility at 50° C.) of 25 to 40 mg/mL (≈ 53.3 to 85.4 mM) and a solubility ([1]; organic solvent or mixture, thermodynamic from solid, solvent Acetone/MeOH (1:3), RT, read-out: Visual Solubility at RT) of 10 to 20 mg/mL (≈ 21.3 to 42.7 mM). It also gave a solubility ([1]; organic solvent or mixture, thermodynamic from solid, solvent Acetone, RT, read-out: Visual Solubility at RT) of 94 to 376 mg/mL (≈ 201 to 802 mM), a solubility ([1]; organic solvent or mixture, thermodynamic from solid, solvent BuOH/MeOH (1:3), 50° C., read-out: Visual Solubility at 50° C.) of 26 to 51 mg/mL (≈ 55.5 to 109 mM) and a solubility ([1]; organic solvent or mixture, thermodynamic from solid, solvent BuOH/MeOH (1:3), RT, read-out: Visual Solubility at RT) of under 10 mg/mL. For the same compound, the solubility ([1]; organic solvent or mixture, thermodynamic from solid, solvent Cyclohexane, RT, read-out: Visual Solubility at RT) was 92 to 368 mg/mL (≈ 196 to 785 mM), the solubility ([1]; organic solvent or mixture, thermodynamic from solid, solvent DCM, RT, read-out: Visual Solubility at RT) was over 404 mg/mL and the solubility ([1]; organic solvent or mixture, thermodynamic from solid, solvent DMSO, 50° C., read-out: Visual Solubility at 50° C.) was 25 to 50 mg/mL (≈ 53.3 to 107 mM). For the same compound, the solubility ([1]; organic solvent or mixture, thermodynamic from solid, solvent DMSO, RT, read-out: Visual Solubility at RT) was 18 to 46 mg/mL (≈ 38.4 to 98.2 mM), the solubility ([1]; organic solvent or mixture, thermodynamic from solid, solvent EtOAc, RT, read-out: Visual Solubility at RT) was over 372 mg/mL and the solubility ([1]; organic solvent or mixture, thermodynamic from solid, solvent EtOH, 50° C., read-out: Visual Solubility at 50° C.) was 25 to 50 mg/mL (≈ 53.3 to 107 mM). For the same compound, the solubility ([1]; organic solvent or mixture, thermodynamic from solid, solvent EtOH, RT, read-out: Visual Solubility at RT) was under 9 mg/mL, the solubility ([1]; organic solvent or mixture, thermodynamic from solid, solvent Heptane, 50° C., read-out: Visual Solubility at 50° C.) was 127 to 254 mg/mL (≈ 271 to 542 mM) and the solubility ([1]; organic solvent or mixture, thermodynamic from solid, solvent Heptane, RT, read-out: Visual Solubility at RT) was 20 to 51 mg/mL (≈ 42.7 to 109 mM). For the same compound, the solubility ([1]; organic solvent or mixture, thermodynamic from solid, solvent IPA:water (9:1), 50° C., read-out: Visual Solubility at 50° C.) was under 27 mg/mL, the solubility ([1]; organic solvent or mixture, thermodynamic from solid, solvent IPA:water (9:1), RT, read-out: Visual Solubility at RT) was under 10 mg/mL and the solubility ([1]; organic solvent or mixture, thermodynamic from solid, solvent IPA, 50° C., read-out: Visual Solubility at 50° C.) was 25 to 50 mg/mL (≈ 53.3 to 107 mM). It also gave a solubility ([1]; organic solvent or mixture, thermodynamic from solid, solvent IPA, RT, read-out: Visual Solubility at RT) of under 10 mg/mL, a solubility ([1]; organic solvent or mixture, thermodynamic from solid, solvent MIBK, RT, read-out: Visual Solubility at RT) of 105 to 420 mg/mL (≈ 224 to 896 mM) and a solubility ([1]; organic solvent or mixture, thermodynamic from solid, solvent MTBE, RT, read-out: Visual Solubility at RT) of 93 to 372 mg/mL (≈ 198 to 794 mM). For the same compound, the solubility ([1]; organic solvent or mixture, thermodynamic from solid, solvent MeCN, 50° C., read-out: Visual Solubility at 50° C.) was 25 to 50 mg/mL (≈ 53.3 to 107 mM), the solubility ([1]; organic solvent or mixture, thermodynamic from solid, solvent MeCN, RT, read-out: Visual Solubility at RT) was 9 to 18 mg/mL (≈ 19.2 to 38.4 mM) and the solubility ([1]; organic solvent or mixture, thermodynamic from solid, solvent MeOH, 50° C., read-out: Visual Solubility at 50° C.) was under 25 mg/mL. It also gave a solubility ([1]; organic solvent or mixture, thermodynamic from solid, solvent MeOH, RT, read-out: Visual Solubility at RT) of under 9 mg/mL, a solubility ([1]; organic solvent or mixture, thermodynamic from solid, solvent THF/MeOH (1:1), RT, read-out: Visual Solubility at RT) of 98 to 392 mg/mL (≈ 209 to 836 mM) and a solubility ([1]; organic solvent or mixture, thermodynamic from solid, solvent Toluene, RT, read-out: Visual Solubility at RT) of over 376 mg/mL. The solubility ([1]; thermodynamic from solid, solvent Water, 50° C., read-out: Visual Solubility at 50° C.) was under 24 mg/mL, the solubility ([1]; thermodynamic from solid, solvent Water, RT, read-out: Visual Solubility at RT) was under 9 mg/mL and the solubility ([1]; water) was “poorly soluble”. For the same compound, the solubility (Gravimetric solubility; 20 °C, organic solvent or mixture, solvent Acetone/MeOH (1:3), RT, read-out: Gravimetric Solubility at RT) was about 9 mg/mL (≈ 19.2 mM), the solubility (Gravimetric solubility; 20 °C, organic solvent or mixture, solvent BuOH/MeOH (1:3), RT, read-out: Gravimetric Solubility at RT) was about 6 mg/mL (≈ 12.8 mM) and the solubility (Gravimetric solubility; 20 °C, organic solvent or mixture, solvent EtOH, RT, read-out: Gravimetric Solubility at RT) was about 7 mg/mL (≈ 14.9 mM). It also gave a solubility (Gravimetric solubility; 20 °C, organic solvent or mixture, solvent Heptane, RT, read-out: Gravimetric Solubility at RT) of about 33 mg/mL (≈ 70.4 mM), a solubility (Gravimetric solubility; 20 °C, organic solvent or mixture, solvent IPA:water (9:1), RT, read-out: Gravimetric Solubility at RT) of about 3 mg/mL (≈ 6.4 mM) and a solubility (Gravimetric solubility; 20 °C, organic solvent or mixture, solvent IPA, RT, read-out: Gravimetric Solubility at RT) of about 7 mg/mL (≈ 14.9 mM). The solubility (Gravimetric solubility; 20 °C, organic solvent or mixture, solvent MeCN, RT, read-out: Gravimetric Solubility at RT) was about 14 mg/mL (≈ 29.9 mM), the solubility (Gravimetric solubility; 20 °C, organic solvent or mixture, solvent MeOH, RT, read-out: Gravimetric Solubility at RT) was about 3 mg/mL (≈ 6.4 mM) and the solubility (Gravimetric solubility; 20 °C, solvent Water, RT, read-out: Gravimetric Solubility at RT) was under 1 mg/mL. It also gave a solubility (Gravimetric solubility; organic solvent or mixture, solvent Acetone/MeOH (1:3), 50° C., read-out: Gravimetric Solubility at 50° C.) of about 41 mg/mL (≈ 87.5 mM), a solubility (Gravimetric solubility; organic solvent or mixture, solvent BuOH/MeOH (1:3), 50° C., read-out: Gravimetric Solubility at 50° C.) of about 24 mg/mL (≈ 51.2 mM) and a solubility (Gravimetric solubility; organic solvent or mixture, solvent EtOH, 50° C., read-out: Gravimetric Solubility at 50° C.) of about 29 mg/mL (≈ 61.9 mM). For the same compound, the solubility (Gravimetric solubility; organic solvent or mixture, solvent IPA:water (9:1), 50° C., read-out: Gravimetric Solubility at 50° C.) was about 18 mg/mL (≈ 38.4 mM), the solubility (Gravimetric solubility; organic solvent or mixture, solvent IPA, 50° C., read-out: Gravimetric Solubility at 50° C.) was about 45 mg/mL (≈ 96 mM) and the solubility (Gravimetric solubility; organic solvent or mixture, solvent MeCN, 50° C., read-out: Gravimetric Solubility at 50° C.) was about 35 mg/mL (≈ 74.7 mM). The solubility (Gravimetric solubility; organic solvent or mixture, solvent MeOH, 50° C., read-out: Gravimetric Solubility at 50° C.) was about 12 mg/mL (≈ 25.6 mM), the solubility (Gravimetric solubility; solvent Water, 50° C., read-out: Gravimetric Solubility at 50° C.) was under 1 mg/mL and the solubility ([2]; 1,4-Dioxane/MeOH (1:9), 25 °C, batch 5, 1,4-Dioxane/MeOH (1:9), seed E/G, heat T 50, isolation T 25, SP 3, 4.8 mL/g) was 6 mg/mL (≈ 12.8 mM). For the same compound, the solubility ([2]; Anisole/MeOH (1:9), 5 °C, batch 5, Anisole/MeOH (1:9), seed G, heat T 40, isolation T 5, SP 10, 30.0 mL/g) was 9.8 mg/mL (≈ 20.9 mM) and the solubility ([2]; Cyclohexanone/EtOH (1:9), 25 °C, batch 5, Cyclohexanone/EtOH (1:9), seed G/H, heat T 55, isolation T 25, SP 16, 5.0 mL/g) was 21.1 mg/mL (≈ 45 mM).
